Laboratory results taken from patent publication US20200031920A1, “Combination Therapy for Treating Cancer” (The George Washington University, priority 2017, published 2020).

Experiments:
SKOV3 CR cells = experiment: clonogenic (colony formation) assay; assay type: cell-based; details: 0.1 μM LY2784544 and 0.5 μM cisplatin, 14 days
Description: FIG. 16 is an illustration showing representative colony formation (A) and bar graphs ((B)-(C)). SKOV3 parental and resistant cells were treated with 0.1 μM LY2784544 and 0.5 μM cisplatin for 14 days and quantification data of colony formation assays ((B) and (C)). Colonies in (A) were stained with crystal violet. Data are represented as mean±SD from three independent experiments performed in triplicate. *p<0.05, **p<0.01, ***p<0.001.
Clonogenic assays were conducted to evaluate the cell survival of SKOV3 and SKOV3 CR cells in response to cisplatin, LY2784544, or both cisplatin and LY2784544. […] Currently, carboplatin-based chemotherapy becomes a universal choice. The synergistic effect of LY2784544 with carboplatin on SKOV3 CR cells was also examined.

JAK2 = JAK2 (Homo sapiens, UniProt O60674); experiment: in vitro kinase profiling, more than 450 human kinases; assay type: binding; details: data not shown
Chain of JAK2 (O60674 whole entry): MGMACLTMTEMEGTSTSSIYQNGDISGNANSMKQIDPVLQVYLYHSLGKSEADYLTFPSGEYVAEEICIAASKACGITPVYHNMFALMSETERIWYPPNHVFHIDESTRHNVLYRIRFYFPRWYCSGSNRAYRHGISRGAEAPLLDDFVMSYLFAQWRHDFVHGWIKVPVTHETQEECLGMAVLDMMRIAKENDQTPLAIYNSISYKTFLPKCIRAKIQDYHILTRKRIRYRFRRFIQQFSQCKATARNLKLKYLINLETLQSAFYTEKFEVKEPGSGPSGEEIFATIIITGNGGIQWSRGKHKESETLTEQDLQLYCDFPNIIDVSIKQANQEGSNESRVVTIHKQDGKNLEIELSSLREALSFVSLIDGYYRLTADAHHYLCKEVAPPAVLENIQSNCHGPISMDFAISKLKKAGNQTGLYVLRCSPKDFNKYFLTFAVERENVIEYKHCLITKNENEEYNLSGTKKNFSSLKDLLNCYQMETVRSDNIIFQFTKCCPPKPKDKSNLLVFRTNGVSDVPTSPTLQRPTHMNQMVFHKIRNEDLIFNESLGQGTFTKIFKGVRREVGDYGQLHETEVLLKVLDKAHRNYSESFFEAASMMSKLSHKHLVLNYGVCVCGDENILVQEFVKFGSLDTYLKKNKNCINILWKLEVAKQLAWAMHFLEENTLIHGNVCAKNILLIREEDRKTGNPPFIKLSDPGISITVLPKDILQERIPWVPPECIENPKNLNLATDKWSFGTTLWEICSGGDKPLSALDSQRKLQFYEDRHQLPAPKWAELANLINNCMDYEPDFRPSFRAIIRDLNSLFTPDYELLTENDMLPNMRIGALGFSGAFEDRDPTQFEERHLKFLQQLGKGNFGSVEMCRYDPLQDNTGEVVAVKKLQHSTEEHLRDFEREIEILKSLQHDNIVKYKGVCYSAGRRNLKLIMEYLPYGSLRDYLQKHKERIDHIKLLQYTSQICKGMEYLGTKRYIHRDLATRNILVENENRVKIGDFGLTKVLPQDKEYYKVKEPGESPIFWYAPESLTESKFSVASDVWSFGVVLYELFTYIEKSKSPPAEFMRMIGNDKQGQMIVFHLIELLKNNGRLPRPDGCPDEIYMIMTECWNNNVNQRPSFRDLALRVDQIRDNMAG
Description: To determine whether LY2784544 is able to sensitize SKOV3 CR cells to cisplatin in vivo, SKOV3 CR cells were implanted subcutaneously into nude mice. When the tumor volume reached 100 mm^3, mice were randomized to receive intraperitoneal injections of vehicle, cisplatin (8 mg/kg on days 1 and 8), LY2784544 (15 mg/kg/d from day 1 to day 14), or the combination of cisplatin and LY2784544. […] To evaluate whether this in vivo tumor suppression was through inhibition of the JAK2 pathway and increased apoptosis, the tumor samples four days after full dosage treatment were collected. […] Quantification of phosphorylated JAK2 and TUNEL staining in tumor tissues treated was performed (FIG. 28). […] To confirm the selectivity of LY2784544, an in vitro kinase profiling was conducted to examine the interaction of LY2784544 with more than 450 human kinases.

IGROV1 cells = experiment: cell proliferation assay, IGROV1 parental cells; assay type: cell-based; details: 5 days
From the text: FIG. 60 is a line graph showing the proliferation of IGROV1 parental and IGROV1 CR cells treated with increasing concentrations of cisplatin for 5 days (left). Data are represented as mean±SD from three independent experiments performed in triplicate. Indicated IC50 values represent the mean of two independent experiments performed in triplicate.
Using a similar approach as described in FIG. 1, another cisplatin resistant ovarian cancer cell line IGROV1 CR was raised from its cisplatin sensitive parental cell IGROV1 cells. […] The cell proliferation of IGROV1 CR cells treated with cisplatin, LY2784544 or both LY2784544 and cisplatin was examined.

SKOV3 xenograft tumors = experiment: SKOV3 and SKOV3 CR xenograft tumors treated with cisplatin; assay type: in vivo, nude mice
Description: FIG. 4 is an illustration showing representative TUNEL staining (A) and a bar graph (B) of SKOV3 and SKOV3 CR xenograft tumors treated with cisplatin for two weeks (2 mg/kg or 4 mg/kg cisplatin twice per week) and quantified apoptosis percentage (B). n−3 mice/group. Bar in (A)−50 μm. Data are represented as mean±SD. **p<0.01, ***p<0.001.
FIG. 52 is a bar graph showing IL-11 levels measured by ELISA in plasma of mice bearing SKOV3 xenograft tumors treated with vehicle or cisplatin (2-6 mg/kg/twice a week intraperitoneally for 2 weeks). Data are represented as mean±SD. n=3 mice/group. **p<0.01, ***p<0.001.
Since cisplatin exerts its anticancer effect mainly through its ability to cause DNA damage, resulting in apoptosis, the apoptotic cells in both SKOV3 and SKOV CR cells were measured using Annexin V and Propidium Iodide staining. […] To test whether SKOV3 CR cells are resistant to cisplatin-induced apoptosis in vivo, both SKOV3 and SKOV3 CR cells were injected into nude mice to form xenograft tumors. Once the tumor size reached 100-150 mm^3, cisplatin was given to mice by intraperitoneal injections twice a week for 2 weeks. Three days after treatment, the apoptosis in tumors was examined by TUNEL staining. […] Currently, carboplatin is a more commonly used platinum drug employed clinically to treat ovarian patients. Ozols et al., J Clin Oncol 21: 3194-3200 (2003). Thus, it was tested whether SKOV3 CR cells are also resistant to carboplatin (Sigma-Aldrich).
To further test whether ovarian cancer cells have a similar response to cisplatin in vivo, SKOV3 xenograft tumors were treated with various doses of cisplatin (2 mg-6 mg/kg/twice per week) for 2 weeks. Mice were sacrificed 4 days after the last treatment, and blood samples and xenograft tumors were collected to examine IL-11 expression. […] A high dose of cisplatin generated the high levels of both IL-11 and pJAK2 (Y1007/1008) on tumors (FIG. 53). Thus, cisplatin is able to promote expression of IL-11 as well as JAK2 pathway both in vitro and in vivo.

[1] = SKOV3 xenograft, cisplatin 2-6 mg/kg twice per week for 2 weeks

SMILES | cell survival, combined treatment compared to cisplatin treatment (SKOV3 CR cells) | binding selectivity among kinases (JAK2) | IC50 (IGROV1 cells) [µM] | IL-11 and pJAK2 levels in tumors (IHC) (SKOV3 xenograft tumors; [1]) | human IL-11 levels in serum (SKOV3 xenograft tumors; [1]) | apoptosis in xenograft tumors (TUNEL) (SKOV3 xenograft tumors; cisplatin i.p. twice a week for 2 weeks (2 or 4 mg/kg), three days after treatment)
Cc1cc(Nc2cc(CN3CCOCC3)c3nc(C)c(Cc4ccc(Cl)cc4F)n3n2)n[nH]1 [LY2784544] | significantly reduced the survival of SKOV3 CR | stronger binding to JAK2 than JAK1 and TYK2 | – | – | – | –
N.N.[Cl][Pt][Cl] [cisplatin] | – | – | 0.51 | significant increase of IL-11 as well as pJAK2 (Y1007/1008) levels in SKOV3 tumors | dramatically increased human IL-11 levels in serum of nude mice | apoptotic population was significantly increased in SKOV3 but not in SKOV3 CR cells
